Results reported in ChEMBL document CHEMBL1201862, “PubChem BioAssay data set” (2004).
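Each compound was tested at five concentrations against cells in 96-well plates for 48 hours. Abbreviation: GI50, concentration required for 50% inhibition of growth.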 Activity calls are given as the source filed them. Rule as the data show it: active = GI50 up to about 1.1 µM and inactive = higher.

Tests used:
Assay in all cases: NCI anticancer screen, dose series, 48 h
[1] = system: MDA-MB-231
[2] = system: NCI-H522
[3] = system: SW-620
[4] = system: OVCAR-3
[5] = system: A549
[6] = system: SNB-19
[7] = system: DU-145
[8] = system: IGROV-1
[9] = system: UACC-62
[10] = system: NCI-H23
[11] = system: SNB-75
[12] = system: UACC-257
[13] = system: SN12C
[14] = system: HCT-15
[15] = system: SF-295
[16] = system: NCI-H460
[17] = system: BT-549
[18] = system: OVCAR-5
[19] = system: M14
[20] = system: SR

Row | SMILES | GI50 [1] | GI50 [2] | GI50 [3] | GI50 [4] | GI50 [5] | GI50 [6] | GI50 [7] | GI50 [8] | GI50 [9] | GI50 [10] | GI50 [11] | GI50 [12] | GI50 [13] | GI50 [14] [µM] | GI50 [15] | GI50 [16] | GI50 [17] | GI50 [18] | GI50 [19] | GI50 [20]
1 | O=C1/C(=C/c2ccccc2S)N=C(c2ccccc2)N1c1nc2ccc(Sc3ccccc3)cc2[nH]1 | 26.1 µM (inactive) | 22.8 µM (inactive) | 29.9 µM (inactive) | 21.6 µM (inactive) | 36.6 µM (inactive) | 45.3 µM (inactive) | 34.9 µM (inactive) | 49.4 µM (inactive) | 21.9 µM (inactive) | 37 µM (inactive) | 22.3 µM (inactive) | 23.6 µM (inactive) | 26.4 µM (inactive) | 31.9 | 27.4 µM (inactive) | 21.9 µM (inactive) | 22.1 µM (inactive) | 32.4 µM (inactive) | 20.4 µM (inactive) | 
2 | CC1CC[C@@]2(OC1)O[C@H]1[C@H](O)[C@H]3[C@@H]4CC[C@H]5C[C@@H](OC6OC(CO)C(OC7OC(CO)C(O)C(OC8OCC(O)C(O)C8O)C7OC7OC(CO)C(O)C(O)C7OC7OC(CO)C(O)C(O)C7O)C(O)C6O)[C@H](O)C[C@]5(C)[C@H]4CC[C@]3(C)[C@H]1[C@@H]2C (stereo partly specified) | 2.61 µM (inactive) | 2.78 µM (inactive) | > 10 µM (inactive) | 2.85 µM (inactive) | 3.47 µM (inactive) | 9.35 µM (inactive) | > 10 µM (inactive) | 3.7 µM (inactive) | > 10 µM (inactive) | 5.24 µM (inactive) | 3.1 µM (inactive) | > 10 µM (inactive) | 3.89 µM (inactive) | > 10 |  | > 10 µM (inactive) | > 10 µM (inactive) | > 10 µM (inactive) | > 10 µM (inactive) | 
3 | CC(=O)c1cc(C)n2c1CS[C@@H]2c1ccccc1 | 43.3 µM (inactive) | 30.2 µM (inactive) | 33.7 µM (inactive) | 39.6 µM (inactive) | 53 µM (inactive) | > 100 µM (inactive) | 29.1 µM (inactive) | 32.7 µM (inactive) |  | 65.6 µM (inactive) | 65.8 µM (inactive) | > 100 µM (inactive) | 57.3 µM (inactive) | 31.3 | 65.9 µM (inactive) |  | 37.2 µM (inactive) | > 100 µM (inactive) | > 100 µM (inactive) | 27 µM (inactive)
4 | NC(=S)NS(=O)(=O)c1ccc(F)cc1 | > 100 µM (inactive) | > 100 µM (inactive) | > 100 µM (inactive) | > 100 µM (inactive) | > 100 µM (inactive) | > 100 µM (inactive) | > 100 µM (inactive) | > 100 µM (inactive) | > 100 µM (inactive) | > 100 µM (inactive) | > 100 µM (inactive) | > 100 µM (inactive) | > 100 µM (inactive) | > 100 | > 100 µM (inactive) | > 100 µM (inactive) | > 100 µM (inactive) | > 100 µM (inactive) | > 100 µM (inactive) | 
5 | COc1cc(/C=C2/C(=O)N(C(=O)c3ccccc3O)N=C2C)cc(OC)c1OC | 23.5 µM (inactive) | 3.83 µM (inactive) | 6.22 µM (inactive) | 1.53 µM (inactive) | 0.439 µM (active) | 1.44 µM (inactive) | 2.44 µM (inactive) | 0.69 µM (active) | 0.405 µM (active) | 0.653 µM (active) | 1.84 µM (inactive) | 4.9 µM (inactive) | 3.1 µM (inactive) | 3.17 | 1.16 µM (inactive) | 1.43 µM (inactive) | 0.741 µM (active) | 11.7 µM (inactive) | 7.38 µM (inactive) | 
6 | CC/C(C)=C1\OC(=O)C(C)C(O)C(Cc2cccnc2)NC(=O)C(NC(=O)c2ncccc2O)C(C)OC1=O (stereo unspecified) | > 100 µM (inactive) |  | > 100 µM (inactive) | > 100 µM (inactive) | 74.3 µM (inactive) | > 100 µM (inactive) | > 100 µM (inactive) | 27.1 µM (inactive) | > 100 µM (inactive) | > 100 µM (inactive) | 51.6 µM (inactive) | > 100 µM (inactive) | 94 µM (inactive) | 49.5 | 44.4 µM (inactive) | 63.1 µM (inactive) | > 100 µM (inactive) | > 100 µM (inactive) | 70.6 µM (inactive) | > 100 µM (inactive)
7 | [N-]=[N+]=NC1=C(c2ccccc2)C(=O)c2cccc3cccc1c23 |  |  | 29.9 µM (inactive) | 16.4 µM (inactive) | 11.9 µM (inactive) | 38.9 µM (inactive) | 28.9 µM (inactive) | 15 µM (inactive) | 5.86 µM (inactive) | 24.9 µM (inactive) | 10.2 µM (inactive) | 12.9 µM (inactive) | 29.9 µM (inactive) | 17.8 | 11.2 µM (inactive) | 5.79 µM (inactive) | 8.17 µM (inactive) | 48.5 µM (inactive) | 8.3 µM (inactive) | 11.4 µM (inactive)
8 | CCn1c(-c2ccc(/N=N/Nc3ccc(-c4n[nH]c(=S)n4CC)cc3)cc2)n[nH]c1=S | 4.2 µM (inactive) | 1.67 µM (inactive) | 4.8 µM (inactive) | 2.26 µM (inactive) | 3.56 µM (inactive) | 2.55 µM (inactive) | 2.87 µM (inactive) | 3.09 µM (inactive) |  | 2.53 µM (inactive) | 2.79 µM (inactive) | 3.15 µM (inactive) | 3.02 µM (inactive) | 3.03 | 2.46 µM (inactive) |  | 1.66 µM (inactive) |  | 2.65 µM (inactive) | 3.47 µM (inactive)
9 | Cc1ccc2c(c1)NC(c1ccc(C(=O)O)cc1)c1cccn1-2 (stereo unspecified) | 37.2 µM (inactive) |  | > 100 µM (inactive) | 47.3 µM (inactive) | 36.3 µM (inactive) | 22.4 µM (inactive) | 26 µM (inactive) |  | 42.8 µM (inactive) | > 100 µM (inactive) | 18.7 µM (inactive) | 80.4 µM (inactive) | 69.7 µM (inactive) | > 100 | 37.8 µM (inactive) | 66.5 µM (inactive) | 61.2 µM (inactive) | > 100 µM (inactive) | 46.8 µM (inactive) | > 100 µM (inactive)
10 | CC1=C(C)SC(=C2Sc3c(n(C)c(=O)n(C)c3=O)S2)S1 | 22.7 µM (inactive) | 57.3 µM (inactive) | > 100 µM (inactive) | 71.3 µM (inactive) | 42.5 µM (inactive) | 32.3 µM (inactive) | > 100 µM (inactive) | 59.2 µM (inactive) | 44.7 µM (inactive) | 34.4 µM (inactive) | 20.7 µM (inactive) | > 100 µM (inactive) | 35 µM (inactive) | > 100 | 28.7 µM (inactive) | 30.5 µM (inactive) | 57.1 µM (inactive) | > 100 µM (inactive) | > 100 µM (inactive) | 
11 | CC(C)(C)OC(=O)N[C@@H](Cc1ccccc1)C(=O)N1CC[C@@H](C(=O)N2[C@H]3CC4CC[C@@]3(CS2(=O)=O)C4(C)C)N1 | 48 µM (inactive) |  | 62.8 µM (inactive) | 51.6 µM (inactive) | 43.8 µM (inactive) | 93.8 µM (inactive) | 79.6 µM (inactive) |  | 52.4 µM (inactive) | 50.6 µM (inactive) | 39.9 µM (inactive) | > 100 µM (inactive) | 59 µM (inactive) | 56.9 |  | 39.4 µM (inactive) | 63.5 µM (inactive) | > 100 µM (inactive) | 74 µM (inactive) | > 100 µM (inactive)
12 | O=C(Nc1ccc(N2C(=O)CSC2c2ccccc2O)cc1)c1ccc(N2C(=O)CSC2c2ccccc2O)cc1 (stereo unspecified) | 44 µM (inactive) | 55.7 µM (inactive) | > 100 µM (inactive) | 84.7 µM (inactive) | 40.7 µM (inactive) | 31.4 µM (inactive) | > 100 µM (inactive) | > 100 µM (inactive) | 29.1 µM (inactive) | 64.4 µM (inactive) | 27.7 µM (inactive) | > 100 µM (inactive) | > 100 µM (inactive) | > 100 | 34.4 µM (inactive) | 83.8 µM (inactive) | 87.1 µM (inactive) | 83.6 µM (inactive) | 23.6 µM (inactive) | 
13 | N=C(NCc1ccccc1)N/N=C\c1ccnc2ccccc12 | 13.9 µM (inactive) |  | 14.8 µM (inactive) | 11.6 µM (inactive) | 15 µM (inactive) | 17.9 µM (inactive) | 16.5 µM (inactive) |  | 15.1 µM (inactive) | 15.7 µM (inactive) | 8.04 µM (inactive) | 2.35 µM (inactive) | 15.1 µM (inactive) | 16 | 15.3 µM (inactive) | 13.9 µM (inactive) | 4.56 µM (inactive) | 13.4 µM (inactive) | 4.84 µM (inactive) | 2.09 µM (inactive)
14 | O=C(/C=C/c1ccc2ccccc2c1)NCc1ccc(C(=O)NCc2ccccc2)cc1 | > 100 µM (inactive) | > 56.8 µM (inactive) | > 100 µM (inactive) | > 80.5 µM (inactive) | 65.5 µM (inactive) | 35.9 µM (inactive) | > 100 µM (inactive) | > 70 µM (inactive) | 97.9 µM (inactive) | > 83.4 µM (inactive) | 19.6 µM (inactive) | > 100 µM (inactive) | > 100 µM (inactive) |  | 34.4 µM (inactive) |  | 32.9 µM (inactive) | > 100 µM (inactive) | > 100 µM (inactive) | > 100 µM (inactive)
15 | N#CC(C(=O)c1ccccc1F)c1nc2cc(C(F)(F)F)ccc2s1 (stereo unspecified) | 31 µM (inactive) | 17.3 µM (inactive) | 30.6 µM (inactive) | 16.6 µM (inactive) |  |  | 28.3 µM (inactive) | 36.3 µM (inactive) |  | 19.7 µM (inactive) | 14.6 µM (inactive) | 27.4 µM (inactive) | 23.1 µM (inactive) | 20.1 | 14.3 µM (inactive) | 30.1 µM (inactive) | 23 µM (inactive) | 21.2 µM (inactive) |  | 
